US20050222204A1, “Opioid receptor antagonists” (priority 2002, published 2005)
Read-outs that look alike come from different tables or passages of the source.

Legend:
[1] = target: T1, human opioid receptors, Delta (DOR) (Homo sapiens, UniProt P41143); test: GTPγS functional antagonist assay (SPA), delta receptor, vs DPDPE; assay type: biochemical
T1 construct: expressed in transfected cells
Protocol: (§1) An SPA-based GTPgS assay format was developed based on previous opioid (Emmerson et al., J. Pharm Exp Ther 278,1121,1996; Homg et al., Society for Neuroscience Abstracts, 434.6, 2000) and muscarinic (DeLapp et al., JPET 289, 946, 1999) assay formats. Membranes were resuspended in 20 mM HEPES, 100 mM NaCl, 5 mM MgCl2, 1 mM DTT, and 1 mM EDTA. […] of GTPγ[35S], compound, membrane suspension (20 microgram/well), and wheat germ agglutinin coated SPA beads (1 mg/well) were added to clear bottom 96 well assay plates. GDP ([…]) was added to the membrane solution prior to addition to the assay plates. Plates were sealed and incubated for four hours at room temperature then placed in a refrigerator overnight to allow the beads to settle. […] Plates were warmed to room temperature and counted in a Wallac Microbeta scintillation counter. For antagonist assays, specific agonists were added at the following concentrations: (MOR) DAMGO 1 micromolar, (DOR) DPDPE 30 nM, (KOR) U69593 300 nM. Kb's were determined by Cheng-Prusoff equation (Cheng and Prusoff, 22,3099 1973).

male Long-Evans rats = test: Antiorexigenic effect: food consumption in fasted rats; assay type: in vivo, rat; conditions: oral 3 mg/kg; rats fasted 18 hours; over 1 hour, 2 hour and 4 hour periods; vs untreated control
Protocol: Compounds were tested for effects on food consumption in male Long-Evans rats which had been fasted for 18 hours prior to testing. The weight of food consumed was measured for groups of 6 rats treated with test substance and compared to the food consumed by an untreated control group of 6 animals.

[2] = target: T2, human opioid receptors, Kappa (KOR) (Homo sapiens, UniProt P41145); test: GTPγS functional antagonist assay (SPA), kappa receptor, vs U69593; assay type: biochemical
T2 construct: expressed in transfected cells
T2 sequence (P41145 whole entry): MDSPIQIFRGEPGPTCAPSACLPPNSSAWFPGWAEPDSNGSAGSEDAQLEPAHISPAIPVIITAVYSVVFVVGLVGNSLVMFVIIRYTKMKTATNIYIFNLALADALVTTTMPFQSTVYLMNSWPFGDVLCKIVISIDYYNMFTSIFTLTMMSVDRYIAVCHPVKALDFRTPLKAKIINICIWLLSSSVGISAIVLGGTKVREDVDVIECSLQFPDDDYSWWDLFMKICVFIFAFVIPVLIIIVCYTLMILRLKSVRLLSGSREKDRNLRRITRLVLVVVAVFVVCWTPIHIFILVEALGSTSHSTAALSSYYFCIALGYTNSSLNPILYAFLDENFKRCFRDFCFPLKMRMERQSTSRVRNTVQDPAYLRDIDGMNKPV
Protocol: as §1

[3] = target: T3, human Cytochrome 2D6 (CYP2D6) (Homo sapiens, UniProt P10635); test: Assay for inhibition of CYP2D6 activity (human liver microsomes, bufuralol substrate); assay type: in vitro ADME
T3 construct: from tissue; host or cells: human liver microsomes
T3 sequence (P10635 whole entry): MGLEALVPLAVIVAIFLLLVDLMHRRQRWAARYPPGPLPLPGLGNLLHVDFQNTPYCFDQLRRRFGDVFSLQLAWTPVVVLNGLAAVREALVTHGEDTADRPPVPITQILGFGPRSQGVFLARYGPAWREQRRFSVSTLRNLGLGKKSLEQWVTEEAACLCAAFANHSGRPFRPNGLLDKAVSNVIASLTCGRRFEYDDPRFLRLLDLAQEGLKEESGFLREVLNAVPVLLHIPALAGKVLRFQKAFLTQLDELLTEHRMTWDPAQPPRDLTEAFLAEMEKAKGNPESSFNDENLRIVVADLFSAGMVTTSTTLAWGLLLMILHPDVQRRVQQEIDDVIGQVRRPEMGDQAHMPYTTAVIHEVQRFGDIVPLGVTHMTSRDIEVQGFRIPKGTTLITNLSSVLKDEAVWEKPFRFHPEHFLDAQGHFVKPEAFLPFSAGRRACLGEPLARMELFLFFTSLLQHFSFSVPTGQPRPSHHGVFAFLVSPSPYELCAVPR
Protocol: The reduced potential for inhibition of cytochrome P450 was discovered using a standard assay that monitors the compound's ability to inhibit Cyp2D6 a member of the cytochrome P450 family of enzymes.
Assay for Inhibition of CYP2D6 Activity
The inhibition of human Cytochrome 2D6 (CYP2D6) activity was studied using a validated high through-put screening assay. A 3 uL aliquot of an 8 mM stock solution of compound was delivered to 397 uL of pH 7.4 (50 mM) phosphate buffer resulting in an initial concentration of 60 uM. The compound dose solutions were prepared by serial dilutions to produce concentrations of […]. A 6 mM NaDPH stock solution was prepared by addition of 100 mg of NaDPH to 20 mL of pH 7.4 buffer. A 600 uL aliquot of Human liver Microsomes (HLM-20.0 mg/ml) was added to 20 ml of pH 7.4 phosphate buffer to produce a 0.6 mg/ml solution of HLM. To the HLM mixture was added 120 uL of a 10 mM bufurolol solution (CYP2D6 substrate) producing a final bufuralol concentration of 60 uM. To each assay plate was added 100 uL of the compound dose solutions, 25 uL NaDPH and 25 uL HLM/bufurolol solution. Samples were incubated at 37° C. for 10 minutes and the reaction was quenched with 25 uL of a 2% perchloric acid solution, followed by centrifugation at 3200 rpm for 30 min. The resulting supernatant was assayed for bufurolol concentrations using a Turbo Ion Spray API 150EX MS method. The calculated IC50 value represents the compound concentration that results in a 50% reduction in burfurolol consumption. Table 3 below provides a comparative data for inhibition of CyP2D6.

[4] = Bioavailability in rat (Table 2); conditions: in vivo, read-out: Metabolis Rat (bioavailability)
[5] = target: T4, human opioid receptors, Mu (MOR) (Homo sapiens, UniProt P35372); test: GTPγS functional antagonist assay (SPA), mu receptor, vs DAMGO; assay type: biochemical
T4 construct: expressed in transfected cells
T4 sequence (P35372 whole entry): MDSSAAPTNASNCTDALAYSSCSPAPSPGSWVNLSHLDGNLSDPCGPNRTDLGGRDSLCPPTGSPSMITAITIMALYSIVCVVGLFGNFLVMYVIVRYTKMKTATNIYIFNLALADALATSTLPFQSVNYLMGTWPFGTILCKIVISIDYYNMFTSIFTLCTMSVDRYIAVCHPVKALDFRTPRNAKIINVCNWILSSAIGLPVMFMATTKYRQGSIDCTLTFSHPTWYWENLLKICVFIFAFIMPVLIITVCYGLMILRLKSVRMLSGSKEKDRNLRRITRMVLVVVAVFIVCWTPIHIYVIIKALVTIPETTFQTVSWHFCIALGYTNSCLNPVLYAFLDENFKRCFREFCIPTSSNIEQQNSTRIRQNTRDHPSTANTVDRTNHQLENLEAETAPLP
Protocol: as §1

T1 sequence (P41143 whole entry): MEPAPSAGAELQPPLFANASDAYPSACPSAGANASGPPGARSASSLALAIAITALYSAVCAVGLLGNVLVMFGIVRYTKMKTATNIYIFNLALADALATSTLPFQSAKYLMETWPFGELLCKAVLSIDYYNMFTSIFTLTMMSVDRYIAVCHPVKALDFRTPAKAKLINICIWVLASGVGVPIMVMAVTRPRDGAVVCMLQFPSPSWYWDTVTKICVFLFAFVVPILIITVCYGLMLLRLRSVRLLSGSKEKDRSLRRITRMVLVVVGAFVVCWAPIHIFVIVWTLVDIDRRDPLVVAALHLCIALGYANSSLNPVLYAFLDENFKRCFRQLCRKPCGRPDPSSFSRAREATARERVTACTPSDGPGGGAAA

SMILES	Kb ([1]; read-out: In Vitro GTPγ-S human opioid receptors Delta (Kb))	inhibition of cumulative food consumed (male Long-Evans rats)	Kb [2]	Kb [1]	IC50 ([3]; human liver microsomes, bufuralol substrate, 37° C., 10 minutes)	times less likely to inhibit the cytochrome P450 enzyme system compared to compound (III) ([3]; versus compound (III) of Table 3)	times less likely to cause inhibition of the cytochrome P450 enzyme compared to compound (II) ([3]; versus prior clinical trial candidate compound (II) of Table 3)	bioavailability [4]	Kb [5]	fold more potent than the compound of formula (II) in GTP-γ-S functional antagonist assay ([5]; versus compound (II) of Table 1, mu, kappa, delta)
C[C@H]1CN(CC[C@H](O)C2CCCCC2)CC[C@@]1(C)c1cccc(O)c1 [(III)]	1.19 nM									
C[C@H]1CN(CC[C@H](O)C2CCCCC2)CC[C@@]1(C)c1cccc(C(N)=O)c1 (stereo in doubt) [(I), 3-[1-(3-Cyclohexyl-3-hydroxy-propyl)-3,4-dimethyl-piperidin-4-yl]-benzamide]		statistically significant inhibition	1.93 nM	2.81 nM	39000 nM	over 4 times	~16 times	32%	0.12 nM	at least 2 fold
CCCCCCN1CC[C@@](C)(c2cccc(C(N)=O)c2)[C@@H](C)C1 [(II), reference compound]			4.51 nM	8.72 nM					0.31 nM	
